Measurements published in patent US12077503B2, “Substituted cyclic amides and their use as herbicides” (FMC CORPORATION, priority 2015, dated 2024).

Assays:
Experiment in all cases: Test A preemergence
Assay type in all cases: in vivo
Kochia (Kochia scoparia) = conditions: Bassia scoparia, pre-emergence, 240 h; for pest or weed control at 125 g/ha: 125 g ai/ha, preemergence, 0 to 100 scale where 0 is no effect and 100 is complete control, read-out: Kochia plant response rating; for pest or weed control at 500 g/ha: 500 g ai/ha, Preemergence, visual injury vs untreated controls after approximately 10 d, read-out: Kochia plant response rating (0 to 100 scale where 0 is no effect and 100 is complete control)
Outline: (§1)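 Greenhouse, ~10 d after spray; visual injury vs untreated controls, 0 = no effect, 100 = complete control. Preemergence: directed soil spray over planted seeds. Postemergence: plants 2–10 cm, 1–2 leaf stage. Loam/sand blend. Compound in non-phytotoxic solvent with surfactant.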

[1] = tested on: barnyardgrass (Echinochloa crus-galli); conditions: Echinochloa crus-galli, pre-emergence, 240 h; for pest or weed control at 125 g/ha: 125 g ai/ha, preemergence, 0 to 100 scale where 0 is no effect and 100 is complete control, read-out: Barnyardgrass plant response rating; for pest or weed control at 500 g/ha: 500 g ai/ha, Preemergence, visual injury vs untreated controls after approximately 10 d, read-out: Barnyardgrass plant response rating (0 to 100 scale where 0 is no effect and 100 is complete control)
Outline: as §1

[2] = tested on: giant foxtail (Setaria faberii); conditions: Setaria faberi, pre-emergence, 240 h; for pest or weed control at 125 g/ha: 125 g ai/ha, preemergence, 0 to 100 scale where 0 is no effect and 100 is complete control, read-out: Foxtail, Giant plant response rating; for pest or weed control at 500 g/ha: 500 g ai/ha, Preemergence, visual injury vs untreated controls after approximately 10 d, read-out: Foxtail, Giant plant response rating (0 to 100 scale where 0 is no effect and 100 is complete control)
Outline: as §1

[3] = tested on: pigweed (Amaranthus retroflexus); conditions: Amaranthus retroflexus, pre-emergence, 240 h; for pest or weed control at 125 g/ha: 125 g ai/ha, preemergence, 0 to 100 scale where 0 is no effect and 100 is complete control, read-out: Pigweed plant response rating; for pest or weed control at 500 g/ha: 500 g ai/ha, Preemergence, visual injury vs untreated controls after approximately 10 d, read-out: Pigweed plant response rating (0 to 100 scale where 0 is no effect and 100 is complete control)
[4] = tested on: ryegrass, Italian (Italian ryegrass, Lolium multiflorum); conditions: Lolium multiflorum, pre-emergence, 240 h; for pest or weed control at 125 g/ha: 125 g ai/ha, preemergence, 0 to 100 scale where 0 is no effect and 100 is complete control, read-out: Ryegrass, Italian plant response rating; for pest or weed control at 500 g/ha: 500 g ai/ha, Preemergence, visual injury vs untreated controls after approximately 10 d, read-out: Ryegrass, Italian plant response rating (0 to 100 scale where 0 is no effect and 100 is complete control)
Outline: as §1

SMILES | pest or weed control at 125 g/ha (Kochia (Kochia scoparia)) [%] | pest or weed control at 500 g/ha (Kochia (Kochia scoparia)) [%] | pest or weed control at 125 g/ha [1] [%] | pest or weed control at 500 g/ha [1] [%] | pest or weed control at 125 g/ha [2] [%] | pest or weed control at 500 g/ha [2] [%] | pest or weed control at 125 g/ha [3] [%] | pest or weed control at 500 g/ha [3] [%] | pest or weed control at 125 g/ha [4] [%] | pest or weed control at 500 g/ha [4] [%]
O=C1NC[C@H](c2ccc(F)c(OC(F)(F)C(F)(F)Br)c2)[C@H]1C(=O)Nc1cccc(F)c1F (racemic) [Compound 914] | 60 | 60 | 70 | 90 | 90 | 90 | 90 | 90 | 0 | 60
CN1C[C@H](c2cccc(C3CC3)c2)[C@@H](C(=O)Nc2ccccc2S(C)(=O)=O)C1=O [Compound 817] | 50 | 70 | 90 | 90 | 90 | 90 | 0 | 80 | 20 | 40
CN1C[C@H](c2cccc(C3CC3)c2)[C@@H](C(=O)Nc2ccc(F)cc2F)C1=O [Compound 818] | 70 | 80 | 90 | 100 | 90 | 100 | 20 | 60 | 60 | 90
CC(C)c1cccc([C@H]2CN(C)C(=O)[C@@H]2C(=O)Nc2ccccc2F)c1 [Compound 819] | 70 | 100 | 90 | 100 | 100 | 100 | 30 | 30 | 80 | 100
CN1C[C@H](c2cccc(F)c2)[C@@H](C(=O)Nc2ccccc2C(F)(F)F)C1=O [Compound 823] | 0 | 70 | 90 | 100 | 100 | 100 | 0 | 50 | 30 | 60
N#Cc1cccc(NC(=O)[C@H]2C(=O)NC[C@@H]2c2cccc(C(F)(F)F)c2)c1F [Compound 829] | 60 | 90 | 90 | 90 | 90 | 90 | 0 | 60 | 20 | 40
CS(=O)(=O)c1ccccc1NC(=O)[C@H]1C(=O)NC[C@@H]1c1cc(F)c(C(F)(F)F)c(F)c1 [Compound 839] | 90 | 90 | 80 | 90 | 90 | 90 | 90 | 90 | 0 | 40
COc1ccccc1NC(=O)[C@H]1C(=O)N(C)C[C@@H]1c1ccc(C(F)(F)F)cc1 [Compound 843] | 60 | 70 | 60 | 80 | 90 | 90 | 0 | 40 | 0 | 50
Cc1cc(F)cc([C@H]2CNC(=O)[C@@H]2C(=O)Nc2ccc(F)c(F)c2F)c1 [Compound 848] | 40 | 70 | 90 | 90 | 90 | 90 | 40 | 50 | 40 | 50
Cc1cc(F)cc([C@H]2CN(C)C(=O)[C@@H]2C(=O)Nc2cccc(F)c2F)c1 [Compound 849] | 80 | 80 | 90 | 90 | 90 | 90 | 40 | 50 | 80 | 90
Cc1cc(F)cc([C@H]2CN(C)C(=O)[C@@H]2C(=O)Nc2ccccc2F)c1 [Compound 850] | 30 | 70 | 90 | 90 | 90 | 90 | 20 | 30 | 70 | 70
COc1ccc([C@H]2CN(C)C(=O)[C@@H]2C(=O)Nc2ccccc2F)cc1OC [Compound 852] | 0 | 20 | 90 | 90 | 90 | 90 | 20 | 40 | 0 | 30
COc1ccc([C@H]2CN(C)C(=O)[C@@H]2C(=O)Nc2cccc(F)c2F)cc1OC [Compound 853] | 40 | 40 | 90 | 100 | 90 | 100 | 40 | 40 | 0 | 60
COc1ccc([C@H]2CN(C)C(=O)[C@@H]2C(=O)Nc2ccccc2SC)cc1OC [Compound 854] | 0 | 0 | 0 | 80 | 50 | 80 | 0 | 0 | 0 | 0
COc1cc([C@H]2CN(C)C(=O)[C@@H]2C(=O)Nc2cccc(F)c2F)cc(C(F)(F)F)c1 [Compound 856] | 40 | 50 | 90 | 90 | 90 | 90 | 20 | 50 | 50 | 80
COc1cc(C(F)(F)F)ccc1[C@H]1CN(C)C(=O)[C@@H]1C(=O)Nc1cccc(F)c1F [Compound 859] | 50 | 60 | 90 | 90 | 90 | 90 | 60 | 80 | 20 | 80
COc1cc(C(F)(F)F)ccc1[C@H]1CN(C)C(=O)[C@@H]1C(=O)Nc1ccccc1SC [Compound 860] | 0 | 60 | 90 | 90 | 90 | 90 | 60 | 90 | 20 | 40
